In US20250230193A1, “CYCLIC COMPOUND HAVING SELECTIVE KRAS INHIBITORY EFFECT ON HRAS AND NRAS” (CHUGAI SEIYAKU KABUSHIKI KAISHA, priority 2022, published 2025):
Where a SMILES comes first, the peptide text is derived from it. Bridges are numbered along the chain shown (N, C = ends). [ ]: non-standard residue; d: D form. The star is where a group is joined. hPhe(3,5-F2-4-CF3) = N[C@@H](CCc1cc(F)c(C(F)(F)F)c(F)c1)C(=O)O; hPhe(3-Cl-4-CF3) = N[C@@H](CCc1ccc(C(F)(F)F)c(Cl)c1)C(=O)O; NPrPhe(4-CF3) = CCCN[C@@H](Cc1ccc(C(F)(F)F)cc1)C(=O)O; NMeGly(cPent) = CN[C@H](C(=O)O)C1CCCC1; αMeCha = C[C@](N)(CC1CCCCC1)C(=O)O; Hyp = O=C(O)[C@@H]1C[C@@H](O)CN1; NMeD = CN[C@@H](CC(=O)O)C(=O)O; NMeL = CN[C@@H](CC(C)C)C(=O)O; αMeV = CC(C)[C@](C)(N)C(=O)O; Morpholide = C1CN(*)CCO1; Ac5c = NC1(C(=O)O)CCCC1; Ac4c = NC1(C(=O)O)CCC1; Sar = CNCC(=O)O

What was measured:
[1] = biological target: GDP-bound HRAS wild-type protein (Homo sapiens, UniProt P01112); test: Binding to HRAS by surface plasmon resonance (SPR), Single Cycle Kinetics; conditions: SPR; for HRAS/KRAS (ratio of KD value with respect to HRAS to KD value with respect to KRAS): GDP-bound HRAS wild-type vs GDP-bound KRAS wild-type
[2] = biological target: GDP-bound NRAS wild-type protein (Homo sapiens, UniProt P01111); test: Binding to NRAS by surface plasmon resonance (SPR), Single Cycle Kinetics; conditions: SPR; for NRAS/KRAS (ratio of KD value with respect to NRAS to KD value with respect to KRAS): GDP-bound NRAS wild-type vs GDP-bound KRAS wild-type
Sequence of GDP-bound NRAS wild-type protein (P01111 whole entry): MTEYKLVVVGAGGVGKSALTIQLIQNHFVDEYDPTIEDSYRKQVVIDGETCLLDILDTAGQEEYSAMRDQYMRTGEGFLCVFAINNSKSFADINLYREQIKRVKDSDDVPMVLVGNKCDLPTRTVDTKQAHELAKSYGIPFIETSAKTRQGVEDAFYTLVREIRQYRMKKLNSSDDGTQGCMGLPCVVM

Sequence of GDP-bound HRAS wild-type protein (P01112 whole entry): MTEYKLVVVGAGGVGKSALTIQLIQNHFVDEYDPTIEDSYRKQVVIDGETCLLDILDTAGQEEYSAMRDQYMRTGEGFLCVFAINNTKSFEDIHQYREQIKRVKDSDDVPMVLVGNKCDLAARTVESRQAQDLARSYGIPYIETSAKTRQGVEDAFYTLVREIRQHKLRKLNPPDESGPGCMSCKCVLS

With CCOC[C@H]1C(=O)N[C@@H]([C@@H](C)CC)C(=O)N(C)CC(=O)N(C)[C@H]2C/C=C\CCN(C2=O)[C@@H](Cc2ccc(C)cc2)C(=O)N(C)CC(=O)N[C@@H](CCc2ccc(C(F)(F)F)c(Cl)c2)C(=O)N2C[C@@H](C)C[C@H]2C(=O)NC2(CC(C)(C)C2)C(=O)N(C)[C@@H](C2CCCC2)C(=O)N(C)[C@H](C(=O)N(C)CC)CC(=O)N1C [PP2451] the “HRAS/KRAS (ratio of KD value with respect to HRAS to KD value with respect to KRAS)” value [1] was “A (a compound having 10 or more and less than 20 is denoted as A)” and the “NRAS/KRAS (ratio of KD value with respect to NRAS to KD value with respect to KRAS)” value [2] was “A (a compound having 10 or more and less than 20 is denoted as A)”.
CCO[C@@H]1C[C@H]2C(=O)NC3(CCCC3)C(=O)N(C)[C@@H](C3CCCC3)C(=O)N(C)[C@H](C(=O)N(C)C)CC(=O)N(C)[C@@H](CC(C)C)C(=O)N[C@@H]([C@@H](C)CC)C(=O)N(C)CC(=O)N(C)[C@H]3C[C@@H](C)CCN(C3=O)[C@@H](Cc3ccc(C(F)(F)F)cc3)C(=O)N(C)CC(=O)N[C@@H](CCc3cc(F)c(C(F)(F)F)c(F)c3)C(=O)N2C1 [PP1017] was tested, and the “HRAS/KRAS (ratio of KD value with respect to HRAS to KD value with respect to KRAS)” value ([1]; KD ratio) was “B (a compound having 3 or more and less than 10 is denoted as B)” and the “NRAS/KRAS (ratio of KD value with respect to NRAS to KD value with respect to KRAS)” value ([2]; KD ratio) was “C (A compound having a KD ratio of 0.1 or more and less than 3 is denoted as C)”.
For CC[C@H](C)[C@@H]1NC(=O)[C@H](CC(C)C)N(C)C(=O)C[C@@H](C(=O)N(C)C)N(C)C(=O)[C@H](C2CCCC2)N(C)C(=O)C2(CCCC2)NC(=O)[C@@H]2CCCN2C(=O)[C@H](CCc2cc(F)c(C(F)(F)F)c(F)c2)NC(=O)CN(C)C(=O)[C@H](Cc2ccc(C(F)(F)F)cc2)N2CCCCC[C@@H](C2=O)N(C)C(=O)CN(CC)C1=O [PP0514], the “HRAS/KRAS (ratio of KD value with respect to GDP-bound HRAS wild-type protein to KD value with respect to KRAS)” value [1] was “B (a compound having 3 or more and less than 10 is denoted as B)” and the “NRAS/KRAS (ratio of KD value with respect to GDP-bound NRAS wild-type protein to KD value with respect to KRAS)” value [2] was “B (a compound having 3 or more and less than 10 is denoted as B)”.
CCCN1C(=O)CN(C)C(=O)CN(C)C(=O)[C@H]([C@@H](C)CC)NC(=O)[C@H](CC(C)C)N(C)C(=O)C[C@@H](C(=O)N2CCOCC2)N(C)C(=O)[C@H](C2CCCC2)N(C)C(=O)C2(CCCC2)NC(=O)CN(C)C(=O)[C@H](CCc2ccc(C(F)(F)F)c(Cl)c2)NC(=O)CN(C)C(=O)[C@@H]1Cc1ccc(C(F)(F)F)cc1 [PP0266] ([NMeL]I[Sar][Sar][NPrPhe(4-CF3)][Sar][hPhe(3-Cl-4-CF3)][Sar][Ac5c][NMeGly(cPent)][NMeD]-Morpholide; lactam N-11) was tested, and the “HRAS/KRAS (ratio of KD for GDP-bound HRAS wild-type to KD for KRAS)” value [1] was “C (A compound having a KD ratio of 0.1 or more and less than 3 is denoted as C)” and the “NRAS/KRAS (ratio of KD for GDP-bound NRAS wild-type to KD for KRAS)” value [2] was “B (a compound having 3 or more and less than 10 is denoted as B)”.
For CCCN1C(=O)CN(C)C(=O)CN(C)C(=O)[C@H]([C@@H](C)CC)NC(=O)[C@H](CC(C)C)N(C)C(=O)C[C@@H](C(=O)N(C)C)N(C)C(=O)[C@H](C2CCCC2)N(C)C(=O)[C@](C)(CC2CCCCC2)NC(=O)[C@@H]2CCCN2C(=O)[C@H](CCc2cc(F)c(C(F)(F)F)c(F)c2)NC(=O)CN(C)C(=O)[C@@H]1Cc1ccc(C(F)(F)F)cc1 [PP0739] ([NMeL]I[Sar][Sar][NPrPhe(4-CF3)][Sar][hPhe(3,5-F2-4-CF3)]P[αMeCha][NMeGly(cPent)][NMeD]-NMe2; lactam N-11), the “HRAS/KRAS (ratio of KD value with respect to GDP-bound HRAS wild-type protein to KD value with respect to KRAS)” value [1] was “C (A compound having a KD ratio of 0.1 or more and less than 3 is denoted as C)” and the “NRAS/KRAS (ratio of KD value with respect to GDP-bound NRAS wild-type protein to KD value with respect to KRAS)” value [2] was “B (a compound having 3 or more and less than 10 is denoted as B)”.
For CCCN1C(=O)CN(C)C(=O)CN(C)C(=O)[C@H]([C@@H](C)CC)NC(=O)[C@H](CC(C)C)N(C)C(=O)C[C@@H](C(=O)N(C)C)NC(=O)[C@H](C2CCCC2)N(C)C(=O)C2(CCC2)NC(=O)[C@@H]2C[C@@H](OCC)CN2C(=O)[C@H](CCc2ccc(C(F)(F)F)c(Cl)c2)NC(=O)CN(C)C(=O)[C@@H]1Cc1ccc(C(F)(F)F)cc1 [PP0360] ([NMeL]I[Sar][Sar][NPrPhe(4-CF3)][Sar][hPhe(3-Cl-4-CF3)][Hyp](Et)[Ac4c][NMeGly(cPent)]D-NMe2; lactam N-11), the “HRAS/KRAS (ratio of KD for GDP-bound HRAS wild-type to KD for KRAS)” value [1] was “C (A compound having a KD ratio of 0.1 or more and less than 3 is denoted as C)” and the “NRAS/KRAS (ratio of KD for GDP-bound NRAS wild-type to KD for KRAS)” value [2] was “B (a compound having 3 or more and less than 10 is denoted as B)”.
CCCN1C(=O)CN(C)C(=O)CN(C)C(=O)[C@H]([C@@H](C)CC)NC(=O)[C@H](CC(C)C)N(C)C(=O)C[C@@H](C(=O)N2CCOCC2)N(C)C(=O)[C@H](C2CCCC2)N(C)C(=O)[C@](C)(C(C)C)NC(=O)[C@@H]2CCCN2C(=O)[C@H](CCc2cc(F)c(C(F)(F)F)c(F)c2)NC(=O)CN(C)C(=O)[C@@H]1Cc1ccc(C(F)(F)F)cc1 [PP0756] ([NMeL]I[Sar][Sar][NPrPhe(4-CF3)][Sar][hPhe(3,5-F2-4-CF3)]P[αMeV][NMeGly(cPent)][NMeD]-Morpholide; lactam N-11) was tested, and the “HRAS/KRAS (ratio of KD value with respect to GDP-bound HRAS wild-type protein to KD value with respect to KRAS)” value [1] was “B (a compound having 3 or more and less than 10 is denoted as B)” and the “NRAS/KRAS (ratio of KD value with respect to GDP-bound NRAS wild-type protein to KD value with respect to KRAS)” value [2] was “B (a compound having 3 or more and less than 10 is denoted as B)”.
